Data: patent publication US20260374739A1, “SMALL MOLECULAR WEIGHT CHEMICAL COMPOUND TO ANTAGONIZE EPH-EPHRIN TETRAMERIZATION AND INHIBIT BIDIRECTIONAL SIGNALING” (THE BOARD OF REGENTS OF THE UNIVERSITY OF TEXAS SYSTEM, priority 2022, published 2026)
Several values for one entry are separate records, joined by “and”; a condition that tells them apart may be missing. Equal entries are not always repeated. Marks after values point to notes of the source that are not given here.

What was measured:
EphB1-EphrinB2 (EB2) = target: T1, EphB1-EphrinB2 (EB2) (Rattus norvegicus, UniProt P09759); assay: Alpha assay EphB1-EphrinB2 (EB2) interaction; assay type: binding, mouse EB2
T1 construct: rat EphB1-Fc residues 18-538; mouse EB2-His residues 18-232; purchased R&D Systems (EphB1-Fc); Sino Biologicals (EB2-His)
T1 sequence (P09759 18-538): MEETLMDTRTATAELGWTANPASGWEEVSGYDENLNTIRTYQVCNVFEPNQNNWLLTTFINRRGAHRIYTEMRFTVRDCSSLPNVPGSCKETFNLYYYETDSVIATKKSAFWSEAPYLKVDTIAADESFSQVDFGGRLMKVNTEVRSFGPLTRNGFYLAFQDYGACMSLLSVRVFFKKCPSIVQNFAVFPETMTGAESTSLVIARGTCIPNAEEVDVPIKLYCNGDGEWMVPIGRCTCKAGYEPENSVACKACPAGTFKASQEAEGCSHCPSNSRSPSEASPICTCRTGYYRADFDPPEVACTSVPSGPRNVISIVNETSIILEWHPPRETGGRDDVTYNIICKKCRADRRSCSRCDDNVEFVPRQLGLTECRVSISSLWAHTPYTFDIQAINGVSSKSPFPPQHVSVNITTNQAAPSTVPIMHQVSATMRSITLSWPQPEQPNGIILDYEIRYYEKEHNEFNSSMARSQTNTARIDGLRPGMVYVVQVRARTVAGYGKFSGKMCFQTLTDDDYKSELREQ
Description: A chemiluminescent AlphaScreen™ bead-based proximity assay suitable for HTS was developed to measure the receptor-ligand interaction formed between EphB1 and EphrinB2 (EB2) ectodomains (FIG. 3). Here, when singlet oxygen molecules generated by high energy irradiation of donor beads travel over a constrained distance to excite acceptor beads, a chemiluminescent signal is generated and detected. If an analyte interferes with the EphB1-EB2 protein-protein interaction, close proximity of the donor and acceptor beads will be disrupted resulting in diminished or lost energy transfer and reduced acceptor bead emission.
Test was conducted in the Alpha assay, to see if purified soluble Reelin (previously shown to bind EphB1 ectodomain) can interfere with EphB1-EB2 binding.
The EphB1-EB2 screen was conducted using 0.8 nM of each protein, 50 ng beads per well, and assessed at 5 μM a library of −240,000 small, drug-like chemicals. […] They were also tested in a counter screen designed to identify non-specific compounds. Here, a single-protein Alpha assay was set up using a dual-tagged EphB2-His-Fc ectodomain protein that can bind both donor and acceptor beads to bring them into proximity. If a selected compound simply absorbs the chemiluminescent signal or interferes with bead function/binding or protein folding, it was hypothesized that it would also reduce signals in the single protein assay, and would consider it a false positive.

EphrinB2-EphB2 [1] = target: T2, EphrinB2-EphB2 (Homo sapiens, UniProt P29323); assay: Octet 80 sec association/500 sec dissociation, immobilized human EphrinB2-Fc binding to soluble human EphB2-His; conditions: immobilized human EphrinB2, 25 nM soluble human EphB2; for EphB2 Inhibition Percent, Inhibition of Association ONLY: at 3.2 μM and 80 seconds; for EphB2 Inhibition Percent, Inhibition of Association-Dissociation: at 3.2 μM and 580 seconds
T2 construct: soluble human EphB1-His, EphB2-His, and EphB4-His ectodomains; commercially available human EphrinB1-Fc (EB1), EphrinB2-Fc (EB2), and EphrinB3-Fc (EB3) ectodomain proteins; purchased
T2 sequence (P29323 19-543 limits assumed): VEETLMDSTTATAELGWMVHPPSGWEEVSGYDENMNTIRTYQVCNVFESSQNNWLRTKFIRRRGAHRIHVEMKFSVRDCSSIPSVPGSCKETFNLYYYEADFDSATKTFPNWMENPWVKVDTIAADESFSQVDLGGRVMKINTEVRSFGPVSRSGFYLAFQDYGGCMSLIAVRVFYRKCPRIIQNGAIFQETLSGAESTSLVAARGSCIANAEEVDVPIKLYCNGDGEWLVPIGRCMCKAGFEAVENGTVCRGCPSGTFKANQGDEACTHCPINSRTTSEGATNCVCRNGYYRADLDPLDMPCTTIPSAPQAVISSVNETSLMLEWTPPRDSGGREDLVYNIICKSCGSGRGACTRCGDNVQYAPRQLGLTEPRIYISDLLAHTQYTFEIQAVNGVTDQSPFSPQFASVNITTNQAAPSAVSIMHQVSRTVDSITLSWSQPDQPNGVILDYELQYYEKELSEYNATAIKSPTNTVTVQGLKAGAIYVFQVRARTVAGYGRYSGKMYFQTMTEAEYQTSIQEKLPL
Outline: (§1)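 EphrinB2-Fc captured on AHC biosensors, then soluble His-tagged EphB ectodomain (25 nM for % inhibition runs) associated 80 s and dissociated 500 s in PBS, 0.05% Tween-20, 1% DMSO ± compound. Compounds tested at 0.1–3.2 μM with a 10 μM max standard; IC50 from AUC of full traces or at 75 s and 135 s.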

EphrinB2-EphB1 = target: T3, EphrinB2-EphB1 (Homo sapiens, UniProt P54762); assay: Octet 80 sec association/500 sec dissociation, immobilized human EphrinB2-Fc binding to soluble human EphB1-His; conditions: immobilized human EphrinB2, 25 nM soluble human EphB1; for EphB1 Inhibition Percent, Inhibition of Association ONLY: at 3.2 μM and 80 seconds; for EphB1 Inhibition Percent, Inhibition of Association-Dissociation: at 3.2 μM and 580 seconds
T3 construct: soluble human EphB1-His, EphB2-His, and EphB4-His ectodomains; commercially available human EphrinB1-Fc (EB1), EphrinB2-Fc (EB2), and EphrinB3-Fc (EB3) ectodomain proteins; purchased
T3 sequence (P54762 18-540 limits assumed): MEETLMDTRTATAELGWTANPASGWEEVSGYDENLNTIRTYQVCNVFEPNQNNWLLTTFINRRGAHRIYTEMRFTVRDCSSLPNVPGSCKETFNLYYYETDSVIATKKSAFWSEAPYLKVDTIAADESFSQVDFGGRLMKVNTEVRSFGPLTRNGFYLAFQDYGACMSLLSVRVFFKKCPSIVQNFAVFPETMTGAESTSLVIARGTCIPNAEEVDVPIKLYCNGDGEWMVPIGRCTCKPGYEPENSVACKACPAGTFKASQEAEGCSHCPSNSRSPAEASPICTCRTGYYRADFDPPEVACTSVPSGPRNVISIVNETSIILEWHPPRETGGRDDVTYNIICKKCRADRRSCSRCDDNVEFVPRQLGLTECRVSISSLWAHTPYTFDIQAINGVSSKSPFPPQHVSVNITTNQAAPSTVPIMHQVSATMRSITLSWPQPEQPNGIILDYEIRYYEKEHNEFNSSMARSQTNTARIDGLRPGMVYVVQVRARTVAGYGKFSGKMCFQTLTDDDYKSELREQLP
Outline: as §1

EphrinB2-EphB4 = target: T4, EphrinB2-EphB4 (Homo sapiens, UniProt P54760); assay: Octet 80 sec association/500 sec dissociation, immobilized human EphrinB2-Fc binding to soluble human EphB4-His; conditions: immobilized human EphrinB2, 25 nM soluble human EphB4; for EphB4 Inhibition Percent, Inhibition of Association ONLY: at 3.2 μM and 80 seconds; for EphB4 Inhibition Percent, Inhibition of Association-Dissociation: at 3.2 μM and 580 seconds
T4 construct: soluble human EphB1-His, EphB2-His, and EphB4-His ectodomains; commercially available human EphrinB1-Fc (EB1), EphrinB2-Fc (EB2), and EphrinB3-Fc (EB3) ectodomain proteins; purchased
T4 sequence (P54760 16-539 limits assumed): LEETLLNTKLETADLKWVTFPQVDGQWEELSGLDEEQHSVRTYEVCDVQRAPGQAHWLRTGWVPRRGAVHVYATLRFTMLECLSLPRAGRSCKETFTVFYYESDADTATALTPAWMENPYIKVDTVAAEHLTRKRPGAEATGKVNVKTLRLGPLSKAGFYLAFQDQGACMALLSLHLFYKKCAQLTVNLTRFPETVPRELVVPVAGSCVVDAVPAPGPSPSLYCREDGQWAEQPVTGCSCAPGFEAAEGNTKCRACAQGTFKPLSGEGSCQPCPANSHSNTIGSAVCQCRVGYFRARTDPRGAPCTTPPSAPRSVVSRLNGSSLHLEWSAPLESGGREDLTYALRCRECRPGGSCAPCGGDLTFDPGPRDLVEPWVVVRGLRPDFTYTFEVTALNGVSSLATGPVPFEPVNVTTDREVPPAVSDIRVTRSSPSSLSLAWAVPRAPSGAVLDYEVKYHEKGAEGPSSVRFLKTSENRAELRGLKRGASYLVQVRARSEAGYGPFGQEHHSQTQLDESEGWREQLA
Outline: as §1

EphrinB2-EphB2 [2] = target: T2, EphrinB2-EphB2; assay: Octet tetramerization inhibition, immobilized human EphrinB2 binding to 50 nM soluble human EphB2; conditions: for IC50: EphrinB2-EphB2
[3] = Absolute Association IC50 (300 sec), Table A
[4] = Absolute Dissociation IC50 (450 sec), Table A
[5] = Relative AUC/IC50, Table A, compound 7: association only
[6] = Relative Association IC50 (300 sec), Table A
[7] = Relative Dissociation IC50 (450 sec), Table A

Molecule | antagonism of EphB1-EB2 (EphB1-EphrinB2 (EB2)) | EphB2 Inhibition Percent, Inhibition of Association ONLY (EphrinB2-EphB2 [1]) | EphB2 Inhibition Percent, Inhibition of Association-Dissociation (EphrinB2-EphB2 [1]) | EphB1 Inhibition Percent, Inhibition of Association ONLY (EphrinB2-EphB1) | EphB1 Inhibition Percent, Inhibition of Association-Dissociation (EphrinB2-EphB1) | EphB4 Inhibition Percent, Inhibition of Association ONLY (EphrinB2-EphB4) | EphB4 Inhibition Percent, Inhibition of Association-Dissociation (EphrinB2-EphB4) [%] | IC50 (EphrinB2-EphB2 [2]; Absolute AUC/IC50, Table A) | IC50 (EphrinB2-EphB2 [2]; [3]) [nM] | IC50 (EphrinB2-EphB2 [2]; [4]) [nM] | IC50 (EphrinB2-EphB2 [2]; [5]) | IC50 (EphrinB2-EphB2 [2]; [6]) [nM] | IC50 (EphrinB2-EphB2 [2]; [7]) | tetramerization inhibitor activity (EphrinB2-EphB2 [2]) | disruption of unsurmountable tetramer (EphrinB2-EphB2 [2]; 0.8-3.2 μM)
CC1CCN(Cc2cc(Br)c(O)c3ncccc23)CC1 [Compound 66, 7-bromo-5-((4-methylpiperidin-1-yl)methyl)quinolin-8-ol, reference compound] | did not pass through the Alpha confirmation and counter screens |  |  |  |  |  |  |  |  |  |  |  |  |  | 
O=S1(=O)CCN(Cc2cc(Br)c(O)c3ncccc23)CC1 [Compound 17, 4-((7-bromo-8-hydroxyquinolin-1-ium-5-yl)methyl)thiomorpholin-4-ium 1,1-dioxide chloride] |  | 59.5% | 74.5% | 33.0% | 48.0% | 18.1% | 37.2 | 1480 nM | 1500 | 1260 | 810 nM | 890 | 780 nM |  | 
COc1ccc(N2CCN(Cc3cc(I)c(O)c4ncccc34)CC2)cc1 [Compound 74, 7-iodo-5-((4-(4-methoxyphenyl)piperazin-1-yl)methyl)quinolin-8-ol] |  | 50.6% | 70.0% | 47.2% | 58.2% | 21.0% | 43.4 | 400 nM | 560 | 420 |  |  |  | exhibit strong IC50 values | 
COc1ccc(N2CCN(Cc3ccc(O)c4ncccc34)CC2)cc1 [Compound 72, 5-((4-(4-methoxyphenyl)piperazin-1-yl)methyl)quinolin-8-ol] |  | 39.4% | 60.2% | 30.0% | 44.5% | 19.8% | 33.2 | 2290 nM | 2510 | 1510 |  | 1200 | 1070 nM | exhibit strong IC50 values | ability to disrupt some of the unsurmountable tetramer
O=[N+]([O-])c1cc(CN2CCS(=O)(=O)CC2)c2cccnc2c1O [Compound 21, 4-((8-hydroxy-7-nitroquinolin-1-ium-5-yl)methyl)thiomorpholin-4-ium 1,1-dioxide chloride] |  | 36.7% and 57.0% | 51.7% and 69.2% | 24.0% and 23.8% | 36.0% and 28.9% | 0% and 4.3% |  | 1150 nM and 1950 nM | 1740 | 1700 | ~1000 nM and 890 nM | 910 | 1070 nM and 1000 nM |  | 
Oc1ccc(CN2CCN(c3ccc(C(F)(F)F)cc3)CC2)c2cccnc12 [Compound 103, 5-((4-(4-(trifluoromethyl)phenyl)piperazin-1-yl)methyl)quinolin-8-ol] |  | 10.5% | 27.6% | 16.3% | 33.8% | 0*% | 11.4 |  |  |  |  |  |  | eliminated the activity | 
Oc1c(I)cc(CN2CCN(Cc3ccc(Br)cc3)CC2)c2cccnc12 [Compound 46, 5-((4-(4-bromobenzyl)piperazin-1-yl)methyl)-7-iodoquinolin-8-ol] |  | 53.0% | 69.6% | 51.6% | 57.2% | 18.1% | 32.0 | 630 nM | 720 | 690 | 520 nM | 480 | 510 nM | exhibit strong IC50 values | 
Reelin: purified soluble Reelin (previously shown to bind EphB1 ectodomain) | almost complete inhibition at 200 nM |  |  |  |  |  |  |  |  |  |  |  |  |  | 
